# Entries after “also recorded” stand apart in the source; their conditions may differ. Like-named read-outs stand apart in the source and are kept apart here.
# Legend:
# GLUTag cells = test: GLP-1 secretion from cultured GLUTag cells treated with LPA and/or LPAR antagonist; format: cell-based, mouse; details: for effect of LPAR antagonist alone on GLP-1 levels: 10 μM antagonist alone, 2 h; for rescue of LPA-inhibited GLP-1 secretion by LPAR antagonist: 10 μM antagonist plus 2.5 μM LPA
# Procedure: We have grown GLUTag cells in culture to test effects of various LPA species and the LPAR 1/2/3 inhibitor Ki-16425. GLUTag cells are a well characterized L-cell line derived from a mouse intestinal tumour, which have been widely used to study the regulation of GLP-1. Briefly, GLUTag cells were grown until 80-90% confluent. Complete medium, containing fetal bovine serum, was replaced with medium containing charcoal[…] dextran treated serum, which removes lipids and hormones that could interfere with testing. […] This indicates a direct inhibitory effect of LPA at physiologically relevant levels on GLP-1 secretion by L-cells, and the ability of a commercially available LPAR antagonist to prevent this.
# Experimental Protocol. Briefly, GLUTag cells were grown until 70-80% confluent. Complete medium (low glucose DMEM), containing fetal bovine serum, was replaced with medium containing charcoal-dextran treated serum, which removes lipids and hormones that could interfere with testing. Cells were then treated with medium containing either DMSO as vehicle control (0.1% v/v), 2.5 μM LPA, 10 μM LPAR antagonist, or a combination of the LPA species and inhibitors. For cells treated with both LPA plus LPAR inhibitor: cells were pre-treated with LPA for 30 minutes and then 10 uM LPAR inhibitor was added to the respective wells for a further 2 hours. For cells treated with LPA only, or vehicle only, the total treatment time was 2.5 hours. For cells treated with antagonist only, the treatment time was 2 hours.
# Dpp4 gene expression = Dpp4 gene expression in LPA-treated GLUTag cells (real time PCR); format: cell-based, mouse; details: 2.5 uM 20:4-LPA, 2 hours and up to 2 days, normalised to Gapdh
# GLP-1 = test: Circulating GLP-1 in mice injected with LPA, with or without LPAR antagonist pre-treatment; format: in vivo; details: for rescue of the fall in blood GLP-1 levels caused by LPA: antagonist 30 mg/kg by gavage 10 min before 50 mg/kg 18:1-LPA i.p., serum at 30 min (Examples 6, 8); for blood GLP-1 with antagonist alone versus vehicles: antagonist 30 mg/kg by gavage, no LPA
# Procedure: We injected mice i.p. with vehicle (10% DMSO in isotonic saline) or 50 mg/kg of 1-oleoyl-2-hydroxy-LPA. Half of the mice injected with LPA were pre-injected with 5 mg/kg Ki-16425 10 minutes prior to receiving LPA. Thirty minutes later, samples of blood were taken by cardiac puncture, and circulating active GLP-1 levels in plasma were analysed by enzyme linked immunosorbent assay.
# The experimental protocol was as follows: • 1. Mice were administered an LPAR antagonist drug, either by oral gavage (for BMS986020, SARI 00842, AM966, AM095, or H2L51863030), or by i.p. injection (for Ki-16425, and LPA2-antagonistl) at the doses indicated in the table below. • 2. Control mice were administered only the vehicle (a 10% DMSO solution) given via the same route as the comparison drug was administered. • 3. Ten minutes later, mice were injected i.p. either with isotonic saline, or with 50 mg/kg LPA. • 4. Thirty minutes later, mice were euthanized by cervical dyslocation, and blood was collected from the heart for preparation of serum that was stored at −80C until it was analyzed for total GLP-1 concentration by ELISA assay using a GLP-1 enzyme immunoassay kit.
# DPP4 [1] = test: DPP4 activity in GLUTag cells (fluorometric kit ab204722); format: cell-based, mouse; details: for effect of 18:1-LPA combined with LPAR antagonist on DPP4 activity in GLUTag cells: 2.5 uM 18:1-LPA 30 minutes, then 10 uM antagonist 2 hours; for effect of LPAR antagonist alone on DPP4 activity in GLUTag cells: 10 uM antagonist, 2 hours
# Procedure: Briefly, GLUTag cells were grown to produce the recommended quantity needed for the assay according to the manufacturer's protocol (ab204722 Dipeptidyl peptidase IV Activity Assay Kit (Fluorometric)), and then the wells were treated in media containing charcoal-stripped FBS (10%), with either nothing (no treatment control), or vehicle control (0.05% DMSO), or 2.5 uM 18:1-LPA for 30 minutes, and then the inhibitors (as indicated in the graph of FIG. 17) were added to the vehicle wells and the 2.5 uM 18:1-LPA wells at 10 uM concentrations, as indicated on the graph (FIG. 17), for an additional 2 hours. Cells were then harvested according to the manufacturer's protocol, and lysed using reagents from the kit. Charcoal-stripped FBS was used to remove lipids, including LPA, from serum. Experiments were also carried out wherein the FBS was not stripped with charcoal, and the results were not different.
# According to the manufacturer, dipeptidyl peptidase IV (DPP4) Activity Assay Kit (Fluorometric) (ab204722) is an assay where DPP4 cleaves a substrate to release a quenched fluorescent group, AMC (7-Amino-4-Methyl Coumarin), which can be easily detected at Ex/Em=360/460 nm. This assay is rapid, simple, sensitive, and reliable, as well as, suitable for high throughput activity screening of DPP4. This kit detects DPP4 activity as low as 3 ρU per well.
# LPAR1 [2] = target: T1, LPAR1 (Homo sapiens, UniProt Q92633); details: cited from earlier work
# Target sequence in this assay (Q92633 whole entry, species assumed): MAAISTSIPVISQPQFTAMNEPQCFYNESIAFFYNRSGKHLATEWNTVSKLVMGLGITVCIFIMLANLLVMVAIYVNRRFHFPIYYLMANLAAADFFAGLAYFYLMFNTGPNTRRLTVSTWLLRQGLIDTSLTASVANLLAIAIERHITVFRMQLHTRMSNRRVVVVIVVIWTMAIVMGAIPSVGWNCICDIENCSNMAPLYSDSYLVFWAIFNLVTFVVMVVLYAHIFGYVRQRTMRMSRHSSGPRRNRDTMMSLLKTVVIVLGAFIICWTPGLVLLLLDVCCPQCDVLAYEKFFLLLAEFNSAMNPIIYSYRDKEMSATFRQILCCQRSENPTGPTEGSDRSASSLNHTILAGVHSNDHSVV
# LPAR2 [3] = target: T2, LPAR2 (Homo sapiens, UniProt Q9HBW0); details: cited from earlier work
# T2 sequence (Q9HBW0 whole entry, species assumed): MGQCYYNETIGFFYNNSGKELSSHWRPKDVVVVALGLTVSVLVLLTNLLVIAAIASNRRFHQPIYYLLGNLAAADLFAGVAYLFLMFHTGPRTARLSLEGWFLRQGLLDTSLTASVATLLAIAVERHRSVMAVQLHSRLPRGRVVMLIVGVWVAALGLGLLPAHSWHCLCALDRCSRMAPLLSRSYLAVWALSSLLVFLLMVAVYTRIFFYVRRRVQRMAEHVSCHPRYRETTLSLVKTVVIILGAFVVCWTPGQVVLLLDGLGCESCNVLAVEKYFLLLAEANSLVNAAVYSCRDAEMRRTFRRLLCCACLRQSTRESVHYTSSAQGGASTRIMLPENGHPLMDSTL
# LPAR3 [4] = target: T3, LPAR3 (Homo sapiens, UniProt Q9UBY5); details: cited from earlier work
# T3 sequence (Q9UBY5 1-353): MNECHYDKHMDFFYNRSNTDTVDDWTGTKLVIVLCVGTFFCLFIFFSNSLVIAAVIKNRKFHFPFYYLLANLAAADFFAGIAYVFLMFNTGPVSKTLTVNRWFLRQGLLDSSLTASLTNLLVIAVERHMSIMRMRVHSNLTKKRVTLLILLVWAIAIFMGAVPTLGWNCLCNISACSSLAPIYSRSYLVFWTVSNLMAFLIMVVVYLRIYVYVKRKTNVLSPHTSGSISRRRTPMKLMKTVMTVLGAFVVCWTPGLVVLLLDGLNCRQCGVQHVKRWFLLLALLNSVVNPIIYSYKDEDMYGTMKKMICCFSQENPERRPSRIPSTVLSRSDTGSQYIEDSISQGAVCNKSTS
# LPAR4 [5] = target: T4, LPAR4 (Homo sapiens, UniProt Q99677); details: cited from earlier work
# T4 construct: host or cells: CHO cells
# T4 sequence (Q99677 whole entry, species assumed): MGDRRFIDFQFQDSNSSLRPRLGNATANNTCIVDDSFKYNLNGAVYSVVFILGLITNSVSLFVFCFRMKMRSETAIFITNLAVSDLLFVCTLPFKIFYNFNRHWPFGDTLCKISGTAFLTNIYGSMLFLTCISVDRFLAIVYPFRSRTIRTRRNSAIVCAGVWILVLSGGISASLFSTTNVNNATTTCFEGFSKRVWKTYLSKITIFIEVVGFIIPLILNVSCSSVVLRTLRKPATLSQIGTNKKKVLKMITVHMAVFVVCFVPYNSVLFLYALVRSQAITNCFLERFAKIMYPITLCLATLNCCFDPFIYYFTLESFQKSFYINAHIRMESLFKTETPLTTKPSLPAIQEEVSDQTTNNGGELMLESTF
# LPAR5 [6] = target: T5, LPAR5 (Homo sapiens, UniProt Q9H1C0); details: cited from earlier work
# T5 construct: host or cells: CHO cells
# T5 sequence (Q9H1C0 whole entry, species assumed): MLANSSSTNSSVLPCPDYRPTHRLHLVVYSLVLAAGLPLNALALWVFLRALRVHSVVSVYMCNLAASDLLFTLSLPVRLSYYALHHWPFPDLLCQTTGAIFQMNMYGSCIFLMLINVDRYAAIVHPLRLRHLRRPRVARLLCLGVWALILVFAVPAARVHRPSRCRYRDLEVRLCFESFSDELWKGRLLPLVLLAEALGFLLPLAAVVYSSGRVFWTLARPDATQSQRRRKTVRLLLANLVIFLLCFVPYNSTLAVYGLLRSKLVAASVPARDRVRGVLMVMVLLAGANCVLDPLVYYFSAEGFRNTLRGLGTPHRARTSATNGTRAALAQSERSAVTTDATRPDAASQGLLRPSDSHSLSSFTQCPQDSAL
# recombinant mouse LPAR1 = target: T6, recombinant mouse LPAR1 (Mus musculus, UniProt P61793); details: CHO cell membranes; read-out: IC50, inhibition of GTP-gamma-s binding, mouse LPAR1; cited from earlier work
# T6 construct: expressed in transfected cells; host or cells: CHO cell membranes
# T6 sequence (P61793 whole entry): as the sequence (Q92633 whole entry, species assumed) above, with I4A, I8S, P22Q, H40Y, I61V, E193D, N194H, I269V, S331N, T335N counted along it
# LPAR1 [7] = target: T1, LPAR1; set-up: expressed in transfected cells; host or cells: CHO cell membranes; details: CHO cell membranes; read-out: IC50, inhibition of GTP-gamma-s binding, human LPAR1; cited from earlier work
# Target sequence in this assay (Q92633 whole entry): as the sequence (Q92633 whole entry, species assumed) above
# LPAR2 [8] = target: T2, LPAR2; details: cited from earlier work; remark: listed apart in the source
# LPAR3 [9] = target: T3, LPAR3; details: cited from earlier work; remark: listed apart in the source
# LPAR4 [10] = target: T4, LPAR4; details: cited from earlier work; remark: listed apart in the source
# LPAR5 [11] = target: T5, LPAR5; details: cited from earlier work; remark: listed apart in the source
# DPP4 [12] = test: DPP4 activity in serum of C57BI/6J mice; format: in vivo
# LPAR1 [13] = target: T1, LPAR1; set-up: expressed in transfected cells; host or cells: CHO cells; details: cited from earlier work
# Target sequence in this assay (Q92633 whole entry): as the sequence (Q92633 whole entry, species assumed) above
structure (smiles),measurement,setting,value
"CCCCC/C=C\C/C=C\C/C=C\C/C=C\CCCC(=O)OCC(O)COP(=O)(O)O (stereo not shown) [20:4-LPA, 1-arachidonoyl-2-hydroxy-LPA]",fold decrease in GLP-1 secretion / GLP-1 levels in media caused by LPA,GLUTag cells; 2.5 μM LPA species,~5 fold
same,decrease in GLP-1 secretion / level caused by LPA (fraction),"GLUTag cells; 2.5 μM LPA, 2-2.5 h",over 2/3
same,change in Dpp4 gene expression,Dpp4 gene expression,did not significantly change
Cc1noc(-c2ccc(-c3ccc(CC(=O)O)cc3)cc2)c1NC(=O)O[C@H](C)c1ccccc1 [AM095],effect of LPAR antagonist alone on GLP-1 levels,GLUTag cells,no significant effect
same,rescue of LPA-inhibited GLP-1 secretion by LPAR antagonist,GLUTag cells,complete rescue
same,rescue of the fall in blood GLP-1 levels caused by LPA,GLP-1,completely abrogated; also recorded: Complete rescues
same,blood GLP-1 with antagonist alone versus vehicles,GLP-1,not significantly different from mice treated only with the vehicles
same,effect of 18:1-LPA combined with LPAR antagonist on DPP4 activity in GLUTag cells,DPP4 [1],did not significantly affect
same,effect of LPAR antagonist alone on DPP4 activity in GLUTag cells,DPP4 [1],did not significantly affect
same,IC50,LPAR1 [2]; read-out: IC50 for LPAR1,~25 nM
same,fold greater affinity for LPAR1 than LPAR2-5,LPAR1 [2]; selectivity,> 400 fold
same,IC50,LPAR2 [3],≥ 10000 nM
same,level at which LPAR3 is antagonized,LPAR3 [4],low micromolar levels
same,IC50,LPAR3 [4]; read-out: IC50 for LPAR3,≥ 10000 nM
same,IC50,LPAR4 [5],≥ 10000 nM
same,IC50,LPAR5 [6],≥ 10000 nM
same,IC50,recombinant mouse LPAR1,730 nM
same,IC50,LPAR1 [7],980 nM
Cc1noc(-c2ccc(-c3ccc(CC(=O)O)cc3)cc2)c1NC(=O)O[C@H](C)c1ccccc1Cl [AM966],effect of LPAR antagonist alone on GLP-1 levels,GLUTag cells,no significant effect
same,rescue of LPA-inhibited GLP-1 secretion by LPAR antagonist,GLUTag cells,complete rescue
same,rescue of the fall in blood GLP-1 levels caused by LPA,GLP-1,completely abrogated; also recorded: Complete rescues; also recorded: restored to normal levels
same,blood GLP-1 with antagonist alone versus vehicles,GLP-1,indistinguishable from mice treated only with the vehicles
same,effect of 18:1-LPA combined with LPAR antagonist on DPP4 activity in GLUTag cells,DPP4 [1],did not significantly affect
same,effect of LPAR antagonist alone on DPP4 activity in GLUTag cells,DPP4 [1],did not significantly affect
same,level at which LPAR3 is antagonized,LPAR3 [4],low micromolar levels
same,IC50,"LPAR2 [8]; calcium assay, CHO cells, read-out: IC50, LPAR2",1700 nM
same,IC50,"LPAR2 [8]; read-out: IC50, LPAR2, calcium release in CHO cells",1700 nM
same,IC50,"LPAR3 [9]; calcium assay, CHO cells, read-out: IC50, LPAR3",1600 nM
same,IC50,"LPAR3 [9]; read-out: IC50, LPAR3, calcium release in CHO cells",1600 nM
same,IC50,"LPAR4 [10]; calcium assay, CHO cells, read-out: IC50, LPAR4",7700 nM
same,IC50,"LPAR4 [10]; read-out: IC50, LPAR4, calcium release in CHO cells",7700 nM
same,IC50,"LPAR5 [11]; calcium assay, CHO cells, read-out: IC50, LPAR5",8600 nM
same,IC50,"LPAR5 [11]; read-out: IC50, LPAR5, calcium release in CHO cells",8600 nM
same,effect of antagonist on DPP4 activity in mouse serum,DPP4 [12]; 30 mg/kg by gavage,did not significantly affect; also recorded: lack of effect; also recorded: not significantly affected
same,effect of 18:1-LPA combined with antagonist on DPP4 activity in mouse serum,DPP4 [12]; antagonist 30 mg/kg by gavage then 50 mg/kg 18:1-LPA,did not affect
same,IC50,"LPAR1 [13]; LPA-induced calcium response, CHO cells with LPAR1",17 nM
same,"fold lower affinity for LPAR2, LPAR3 (than LPAR1)",LPAR1 [13]; selectivity,~10 fold
